US20140100183A1, “CENTRAL ADMINISTRATION OF STABLE FORMULATIONS OF THERAPEUTIC AGENTS FOR CNS CONDITIONS” (The Regents of the University of Colorado, a body corporate, priority 2006, published 2014)
Several values for one entry are separate records, joined by “and”; a condition that tells them apart may be missing. Equal values may be shown once. Read-outs that look alike come from different tables or passages of the source.

Experiments:
[1] = for prevention of precipitation on titration: even at very alkaline pH (≈11)
[2] = tested on: sensory inhibition deficits in DBA/2 mice; assay: Sensory inhibition (paired auditory stimuli, TC ratio) after acute ICV administration; type: in vivo, mouse; settings: for conditioning amplitude / test amplitude: vs baseline; for Rodent ICV dose: effective daily dose, mice
Procedure: The following methods were used to record the sensory inhibition.
The deficit in sensory inhibition can be quantified using the paired stimulus paradigm in which 2 identical stimuli are delivered 0.5 seconds apart and the electrophysiological response to each is recorded. In normal individuals, the response to the second, or test, stimulus, occurring 50 msec after stimulus onset, is reduced compared to the response to the first, or conditioning stimulus. However, schizophrenia patients have similar magnitude responses to both stimuli: The “TC ratio” is calculated by dividing the test amplitude by the conditioning amplitude. […] In normal individuals, the TC ratio is generally less than 0.4 while schizophrenia patients commonly have TC ratios above 0.5 and often approaching or exceeding 1.0.
In the present study, briefly, 5 baseline records were obtained in response to the paired auditory stimuli, prior to drug administration. […] Recordings were obtained at 5 minute intervals for 90 minutes post injection. Data analyzed included the amplitude of the response to the first stimulus (conditioning amplitude), amplitude of the response to the second stimulus (test amplitude) and the TC ratio (test amplitude/conditioning amplitude). This final parameter gives a measure of the level of inhibition in the circuit initiated by the conditioning stimulus. […] DBA/2 mice routinely have TC ratios of ≧0.8.

[3] = tested on: primary mouse cortical neuron cultures; assay: Toxicity in primary mouse cortical neuron cultures (MTT)
Procedure: In addition, a preliminary assessment of the toxicity of cyclodextrin in primary mouse cortical neuron cultures was performed. […] After dissection, and cellular dissociation, the cells were washed with Dulbecco's Modified Eagle's Medium with 10% fetal bovine serum. Following recentrifugation, the cells resuspended in plating medium, counted with trypan blue and plated at a constant density of 6.5×10^4 cells per well in a 96-well pre-coated plate. […] The cultures were maintained at 37° C. in a humidified atmosphere of 5% CO2. […] The cultures were incubated and cell toxicity assayed at 24, 48 and 72 hours. Viability was assessed by the MTT (3-(4,5 diethylthiazol-2-yl)-2,5)diphenyltetrazolium bromide) assay, CellTiter 96 Non-radioactive cell Proliferation Assay (Promega, Madison Wis.) and by visual examination.

schizophrenia patients = settings: Iqbal et al. 2003; cited from earlier work
human = settings: cited from earlier work
animals = assay: Behavioral toxicology: openfield, elevated plus, ataxia; type: in vivo
Procedure: Several animal models as described below were used to determine the efficacy of formulations containing different concentrations of the drug. The animals were also tested for toxic effects as described in the table, below.
All animals are assessed for ataxia, which is a measure of altered gate and ability to change body position. They are also placed on their acks and time to “righting” measured.

[4] = cited from earlier work
[5] = tested on: prenatally stressed Sprague Dawley rats; assay: Chronic ICV clozapine by osmotic minipump in schizophrenia model (Example 3); type: in vivo, rat
Procedure: After 1 week recovery from surgery, at least 10 baseline recording sessions are performed in which 30 pairs of identical auditory click stimuli are presented and the evoked potentials are recorded and averaged. This establishes the baseline parameters for sensory inhibition in the rats.
Formulations described above are administered into the ventricles using an osmotic minipump to deliver 0.5 μl/hr for 14 days. The rats have a chronic recording electrode implant that allows repeated awake recording over several days and a ventricular cannula to permit withdrawal of CSF. Sensory inhibition is recorded on alternate days for the 14 days of the pump duration. At the end of each recording session, blood and CSF are sampled under light anesthesia to assess levels of the active agent. Brain penetration and distribution are assessed using tritiated active agent/excipient complex in the osmotic minipump in a separate group of animals. […] A rat model of deficient sensory inhibition is used which allows us to sample both fluids repeatedly over several days.
Two days later, alternate day recording of sensory inhibition begins and continues for the full 14 days of the pump. […] Data are analyzed by analysis of variance and appropriate a posteriori analyses performed wherever significant differences are found (p<0.05).

[6] = tested on: sensory inhibition deficits in DBA/2 mice; assay: Chronic ICV clozapine (7 day minipump), sensory inhibition; type: in vivo, mouse; settings: 0.25 μl/hr for 7 days
Procedure: DBA/2 mice are implanted with a chronic indwelling cannula aimed at one anterior lateral ventricle (Alzet Brain Infusion system) which is connected to an osmotic minipump delivering 0.25 μl/hr for 7 days. On the 7th day, the mouse is anesthetized, placed in a stereotaxic instrument, a burr hole opened in the skull over the contralateral dorsal hippocampus and a recording electrode lowered to the CA3 region of the hippocampus. Evoked EEG responses to closely paired (0.5 msec apart) identical tones are recorded.

[7] = qualitative, solvents as given in the source; cited from earlier work
[8] = tested on: pentylenetetrazole (PTZ) seizure induction in rats; assay: Pentylenetetrazole (PTZ) seizure induction model, ICV administration; type: in vivo, rat; settings: for % Change: drug group vs vehicle group (-V); for Rodent ICV dose: effective daily dose, blocking seizures; for Efficacy: effective in blocking seizures
Procedure: Rats are anesthetized, placed in a stereotaxic instrument and a burr hole opened over one anterior lateral ventricle. A cannula is lowered to the ventricle and 5 μl of solution containing the drug is injected into the ventricle over 10 minutes. The incision is then closed and the animal allowed to regain consciousness and remain conscious for 10 minutes. After 10 minutes has elapsed, pentylenetetrazole (PTZ, 10 mg/ml in saline) is injected through a tail-vein catheter at a constant rate of infusion (1 ml/min, Razel syringe pump) until a motor seizure is induced. PTZ seizures are identified as myoclonic jerking followed by clonus and tonus. The time from the initial application of PTZ to the first clonic seizure (i.e., forelimb clonus) is measured and defined as “latency to seiqure onset”. The total amount of PTZ infused is calculated and then divided by each rat;s body weight to obtain the dose (mg/kg) of PTZ. The dose required to attain status epilepticus is compared to the PTZ dose without antiseizure medication.

[9] = tested on: patients diagnosed with epilepsy disorders; assay: ICV or cisterna magna treatment of epilepsy (Example 6); type: in vivo, human; settings: central administration, 0.01 to 0.1 mg per hour, 1 week
Source text: After 1 week of treatment, epileptic frequency is reduced.

[10] = tested on: patients diagnosed with psychotic disorders; assay: ICV or cisterna magna treatment of psychotic disorders (Example 5); settings: central administration, 0.01 to 0.1 mg per hour, 1 week
Procedure: A 5 mg/ml solution of the active agent is solubilized in aqueous solution using beta-hydroxypropyl cyclodextrin, made isotonic with NaCl, and the pH is maintained at 7.4 with 10 mM sodium phosphate. […] The stabilized solution is inserted into a fluid reservoir attached to a Medtronic Synchromed-II intrathecal delivery system. The stabilized formulation is intracerebroventricularly or cistema magna injected into patients diagnosed with psychotic disorders.
Injection is continuous, using a computerized pump to provide a delivery rate of 0.01 to 0.1 mg of the active agent per hour, depending on the severity of symptoms.

[11] = tested on: anxiety in rats (elevated plus maze, open field); assay: Elevated plus maze and open field conflicts test after ICV antidepressants; type: in vivo, rat; settings: elevated plus maze and open field conflicts test
Procedure: Various antidepressants were injected via ICV, and animals monitored in standard elevated plus maze and open field conflicts test.
Rats are placed in the center of a pluz-shaped maze. The arms are 13 cm wide; two arms were open and two are enclosed by 32 cm high walls. The maze is elevated off the flor by 51 cm. The percent of time and distance traveled in each type of arm over the 4 minute test period is calculated by computer. Increased time and distance traveled in the open arms is thought to reflect anxiolytic activity.
Rats are place against 1 side of a 104 cm square box with 32 cm sides. The activity of the rat is monitored by computer over a 4 minute testing period. A computer divides the openfied space into 25 equal squares arranged into an outer:ring” of 16 squares, a middle region of 8 squares and a central square. The percent of time and distarnce traveled in the center square by rats receiving the drug are calculated and compared to rats receiving a saline control. Increased time and distance traveled in the center square is thought to reflect anxiolytic activity.

[12] = rodent ICV dose vs human oral equivalent
[13] = human dose is IV not oral for this drug

With CN1CCN(C2=Nc3cc(Cl)ccc3Nc3ccccc32)CC1 [Clozapine, 8-chloro-11-(4-methyl-1-piperazinyl)-5H-dibenzo [b,e][1,4] diazepine] the “pH until which addition of NaOH has little effect on solubility” value ([1]; acidified with HCl, no solubility enhancing agent) was roughly 6.5, the “prevention of precipitation on titration” value ([1]; cyclodextrin) was “prevented clozapine precipitation” and the “pH up to which precipitation is inhibited” value ([1]; cyclodextrin-to-clozapine molar ratio of 2:1) was no more than 9.0. The “prevention of precipitation on titration” value ([1]; octyl glucoside) was “prevented clozapine precipitation”, the “prevention of precipitation on titration above neutral pH” value ([1]; polyethylene glycol (PEG 4000)) was “not able to prevent clozapine precipitation” and the “prevention of precipitation on titration above neutral pH” value ([1]; polyvinylpyrrolidone (PVP 10K)) was “not able to prevent clozapine precipitation”. For the same molecule, the conditioning amplitude ([2]; 0.5 μg ICV) was “increases in conditioning amplitude, though the latter did not reach statistical significance”, the test amplitude ([2]; 0.5 μg ICV) was “decreases in test amplitude” and the “time post injection with significantly reduced test amplitudes” value ([2]; 1.0 μg ICV) was 35 min. The conditioning amplitude ([2]; 1.0 μg ICV) was “significantly increased conditioning amplitudes”, the test amplitude ([2]; 1.0 μg ICV) was “significantly reduced test amplitudes” and the Efficacy ([2]; acute effective dose for improvement of sensory inhibition deficits in mice) was “acute effective”. The “Rodent ICV dose” value [2] was 0.040 mg/kg, the “Rodent ICV dose” value ([2]; listed as clozapine) was “about 0.040 mg/kg” and the “% of Oral dose” value [2, 12] was 0.5%. The “ICV dose lower than systemically administered dose” value ([2]; same mouse model, vs Simosky et al 2002) was greater than 1000 fold, the Highest non-toxic concentration ([3]; In vitro primary cortical cell culture) was 10 µg/mL and the “final concentration at which significant toxicity was observed” value ([3]; clozapine formulated with cyclodextrin) was ≥ 10 μg/mL and ≥ 30 μM. For the same molecule, the “accumulation of drug in peripheral tissues and organs” value (rats; chronic ICV versus intraperitoneal (IP)) was “significantly less accumulation of drug in peripheral tissues and organs”, the “CNS pathology and systemic toxicity” value (rats; rat, in vivo) was “minimal or no CNS pathology and low systemic toxicity” and the “patients who discontinue due to systemic side effects” value (schizophrenia patients) was 17%. The Human oral equivalent (human; effective daily dose, oral) was 7.5 mg/kg, the Highest non-toxic concentration (animals; rat, in vivo) was 50 mg/mL and the partition coefficient ([4]; acidic conditions, pH 2) was 0.4. The Solubility in water [4] was “practically insoluble”, the octanol-to-water partition coefficient ([4]; pH 7.4 (Merck Index, 2004)) was 1000 and the plasma levels ([5]; 0.5 μl/hr for 14 days, steady state) was “extremely low or not detectable”. For the same molecule, the sensory inhibition ([5]; 14 days) was “improvement in sensory inhibition” and the “response to the second tone” value [6] was “significant decreases in the response to the second tone”.
For NC(=O)OCC(COC(N)=O)c1ccccc1 [Felbamate, 2-phenyl-1,3-propanediol dicarbamate], the “Comments: solubility” value [7] is given as “Freely soluble in water and in alcohol; soluble in acetone; insoluble in ether and in benzene”, the Human oral equivalent (human; effective daily dose, oral) is given as 20 mg/kg and the Highest non-toxic concentration (animals; Behavioral: openfield, elevated plus, ataxia) is given as 0.056 mg/mL. The “% Change” value [8] was 60%, the “Rodent ICV dose” value [8] was 0.08242 mg/kg and the “Rodent ICV dose” value ([8]; listed as felbamate) was “about 0.08242 mg/kg”. The Efficacy [8] was “effective in blocking”, the “% of Oral dose” value [8, 12] was 0.4% and the alleviation of seizures [9] was “efficacious therapeutic alleviation of seizures”.
With O=C1CCc2ccc(OCCCCN3CCN(c4cccc(Cl)c4Cl)CC3)cc2N1 [Aripiprazole] the “alleviation of psychotic symptoms” value [10] was “efficacious therapeutic alleviation of psychotic symptoms”.
For O=C1Cc2cc(CCN3CCN(c4nsc5ccccc45)CC3)c(Cl)cc2N1 [Geodon], the “alleviation of psychotic symptoms” value [10] was “efficacious therapeutic alleviation of psychotic symptoms”.
In the case of Nc1ncnc2c1ncn2[C@@H]1O[C@H](CO)[C@@H](O)[C@H]1O [Adenosine], the “efficacy following ICV administration” value [11] is listed as “efficacy”, the Human oral equivalent (human; [13]) is listed as 0.1 mg/kg and the Highest non-toxic concentration (animals; rat, in vivo) is listed as 0.0694 mg/mL. For the same molecule, the “% Change” value [8] was 90%, the “Rodent ICV dose” value [8] was 0.001336 mg/kg and the Efficacy [8] was “effective in blocking”. The “% of Oral dose” value [8, 13] was 1.3%.
